ChEMBL document CHEMBL1141525, “Substituted 2,2-bisaryl-bicycloheptanes as novel and potent inhibitors of 5-lipoxygenase activating protein” (Bioorg Med Chem Lett, 2008)
pIC50: −log10 of the molar value.

Assays:
[1] = target: T1, Arachidonate 5-lipoxygenase-activating protein (Homo sapiens, UniProt P20292); experiment: Displacement of [125I]L-691831 from FLAP
T1 sequence (P20292 whole entry): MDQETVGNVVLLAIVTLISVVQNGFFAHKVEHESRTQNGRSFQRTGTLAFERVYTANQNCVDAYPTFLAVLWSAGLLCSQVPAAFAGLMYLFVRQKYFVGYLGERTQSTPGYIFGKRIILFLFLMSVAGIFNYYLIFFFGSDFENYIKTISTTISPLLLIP

[2] = Inhibition of calcium ionophore-stimulated LTB4 production in human PMN cells; type: functional, cell-based
Blood = experiment: Inhibition of calcium ionophore-stimulated LTB4 production in human whole blood; type: functional, tissue-based
[3] = target: T2, Polyunsaturated fatty acid 5-lipoxygenase (Homo sapiens, UniProt P09917); experiment: Inhibition of 5LOX
T2 sequence (P09917 whole entry): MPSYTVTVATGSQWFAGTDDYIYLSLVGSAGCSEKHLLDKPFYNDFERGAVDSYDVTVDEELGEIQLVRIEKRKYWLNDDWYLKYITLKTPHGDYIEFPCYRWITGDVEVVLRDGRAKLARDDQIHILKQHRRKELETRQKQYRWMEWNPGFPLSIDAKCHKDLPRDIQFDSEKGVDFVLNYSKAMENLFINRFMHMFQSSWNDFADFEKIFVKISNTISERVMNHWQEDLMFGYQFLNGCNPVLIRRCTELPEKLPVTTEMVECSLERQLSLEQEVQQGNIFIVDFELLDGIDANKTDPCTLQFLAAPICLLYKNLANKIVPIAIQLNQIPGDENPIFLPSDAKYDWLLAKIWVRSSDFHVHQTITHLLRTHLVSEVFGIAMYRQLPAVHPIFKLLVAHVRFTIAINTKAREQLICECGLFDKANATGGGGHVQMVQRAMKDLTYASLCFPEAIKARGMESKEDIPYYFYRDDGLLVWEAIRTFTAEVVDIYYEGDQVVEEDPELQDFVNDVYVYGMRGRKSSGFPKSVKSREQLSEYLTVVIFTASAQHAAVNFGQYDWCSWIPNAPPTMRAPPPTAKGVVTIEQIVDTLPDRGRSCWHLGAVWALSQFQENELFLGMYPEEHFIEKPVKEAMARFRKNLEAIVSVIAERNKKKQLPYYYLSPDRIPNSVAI

[4] = Oral bioavailability in rat at 20 mg/kg; type: ADME, organism-based; details: in vivo
Canis familiaris = experiment: Inhibition of ragweed-induced urinary LTE4 production in dog at 2.5 ug/kg/min, iv; type: functional; details: Canis lupus familiaris, Urine
[5] = Cmax in rat at 20 mg/kg, po after 6 hrs; type: ADME, organism-based; design: dose 20 mg/kg, route oral; details: in vivo

pIC50 [1] | pIC50 ([2]; Homo sapiens, PMN) | pIC50 (Blood; Homo sapiens, Blood) | SMILES | also measured
8.26 | 8.38 | 6.94 | CS(=O)(=O)CCOc1ccc(OCc2ccc3ccccc3n2)cc1C1(c2ccccc2)CC2CCC1C2 (centres undefined) | –
8.25 | 8.59 | 6.85 | COC(=O)c1ccc(OCc2ccc3ccccc3n2)cc1C1(c2ccccc2)CC2CCC1C2 (centres undefined) | –
6.01 | < 5.62 | – | Oc1cc(OCc2ccc3ccccc3n2)ccc1C1(c2ccccc2)CC2CCC1C2 (centres undefined) | –
6.11 | 7.33 | – | COC(=O)COc1cc(OCc2ccc3ccccc3n2)ccc1C1(c2ccccc2)CC2CCC1C2 (centres undefined) | –
5.44 | 6.82 | – | O=C(O)COc1cc(OCc2ccc3ccccc3n2)ccc1C1(c2ccccc2)CC2CCC1C2 (centres undefined) | –
7.03 | 8.23 | – | COC(=O)COc1ccc(OCc2ccc3ccccc3n2)c(C2(c3ccccc3)CC3CCC2C3)c1 (centres undefined) | –
7.85 | 7.80 | < 5.52 | O=C(O)COc1ccc(OCc2ccc3ccccc3n2)cc1C1(c2ccccc2)CC2CCC1C2 (centres undefined) | –
8.46 | 8.10 | 6.52 | O=C(O)CCCOc1ccc(OCc2ccc3ccccc3n2)cc1C1(c2ccccc2)CC2CCC1C2 (centres undefined) | –
8.07 | 8.05 | 5.96 | COc1ccc(OCc2ccc3ccccc3n2)cc1C1(c2ccccc2)CC2CCC1C2 (centres undefined) | –
8.22 | 7.10 | < 5.52 | CCCCOc1ccc(OCc2ccc3ccccc3n2)cc1C1(c2ccccc2)CC2CCC1C2 (centres undefined) | –
7.88 | 7.72 | 6.24 | Oc1ccc(OCc2ccc3ccccc3n2)cc1C1(c2ccccc2)CC2CCC1C2 (centres undefined) | pIC50 [3]: 5.30
7.91 | 8.02 | – | O=C(O)c1ccc(OCc2ccc3ccccc3n2)cc1C1(c2ccccc2)CC2CCC1C2 (centres undefined) | –
8.43 | 7.38 | 6.82 | CCOC(=O)CCCOc1ccc(OCc2ccc3ccccc3n2)cc1C1(c2ccccc2)CC2CCC1C2 (centres undefined) | –
8.30 | 8.30 | 6.54 | COC(=O)COc1ccc(OCc2ccc3ccccc3n2)cc1C1(c2ccccc2)CC2CCC1C2 (centres undefined) | pIC50 [3]: < 5.22
5.50 | 6.55 | – | O=C(O)COc1ccc(OCc2ccc3ccccc3n2)c(C2(c3ccccc3)CC3CCC2C3)c1 (centres undefined) | –
8.19 | 8.06 | 6.47 | CN(C)CCOc1ccc(OCc2ccc3ccccc3n2)cc1C1(c2ccccc2)CC2CCC1C2 (centres undefined) | –

Further lines, the compound ahead of its results:

SMILES | pIC50 [1] | pIC50 ([2]; Homo sapiens, PMN) | pIC50 (Blood; Homo sapiens, Blood) | also measured
O=C(Nc1cccnc1)Oc1ccc(OCc2ccccn2)c(C2(c3ccccc3)CC3CCC2C3)c1 (centres undefined) | 6.74 | – | < 5.52 | –
c1ccc(C2(c3cc(OCc4ccc5ccccc5n4)ccc3OCc3ccccn3)CC3CCC2C3)cc1 (centres undefined) | 8.39 | 8.15 | 6.65 | –
COC(=O)COc1ccc(OCc2ccc3ccccc3n2)cc1C1(c2ccccc2)CCCC1 | 8.03 | 8.77 | 6.05 | –
COC(=O)COc1ccc(OCc2ccc3ccccc3n2)cc1C1(c2ccccc2)CCCCC1 | 8.43 | 8.74 | 6.70 | –
c1ccc2nc(COc3ccc(C4(c5ccc(OCc6ccc7ccccc7n6)cc5)CC5CCC4C5)cc3)ccc2c1 (centres undefined) | 6.90 | < 5.74 | – | –
OCCOc1ccc(C2(c3ccc(OCCO)cc3)CC3CCC2C3)cc1 (centres undefined) | 6.41 | 7.22 | – | pIC50 [3]: < 5.10
Oc1ccc(C2(c3ccc(OCc4ccc5ccccc5n4)cc3)CC3CCC2C3)cc1 (centres undefined) | 6.84 | 6.73 | – | –
COC(=O)COc1ccc(C2(c3ccc(OCc4ccc5ccccc5n4)cc3)CC3CCC2C3)cc1 (centres undefined) | 6.74 | 6.77 | – | –
Oc1ccc(O)c(C2(c3ccccc3)CC3CCC2C3)c1 (centres undefined) | 5.68 | 6.38 | – | –
c1ccc(C2(c3cc(OCc4ccc5occc5n4)ccc3OCc3ccccn3)CC3CCC2C3)cc1 (centres undefined) | 8.31 | 8.66 | 7.10 | –
O=C(O)COc1ccc(C2(c3ccc(OCc4ccc5ccccc5n4)cc3)CC3CCC2C3)cc1 (centres undefined) | 7.01 | 7.36 | – | pIC50 [3]: < 5.20
c1ccc(C2(c3cc(OCc4nc5ccccc5s4)ccc3OCc3ccccn3)CC3CCC2C3)cc1 (centres undefined) | 8.12 | 8.15 | 6.66 | –
c1ccc(C2(c3cc(OCc4ccccn4)ccc3OCc3ccccn3)CC3CCC2C3)cc1 (centres undefined) | 7.74 | 8.41 | 6.56 | –
c1ccc(C2(c3cc(OCc4ccc5ccccc5n4)ccc3OCc3ccc4ccccc4n3)CCCC2)cc1 | 8.35 | 7.99 | 5.97 | –
c1ccc(C2(c3cc(OCc4ccc5ccccc5n4)ccc3OCc3ccc4ccccc4n3)CCCCC2)cc1 | 8.38 | 8.21 | 5.52 | –
Oc1ccc(OCc2ccc3ccccc3n2)cc1C1(c2ccccc2)CCCC1 | 7.66 | 8.30 | 5.72 | –
O=C(Nc1cccnc1)Oc1ccc(OCc2ccc3ccccc3n2)cc1C1(c2ccccc2)CCCC1 | 8.62 | > 8.89 | 7.28 | –
c1ccc(C2(c3cc(OCc4cccnc4)ccc3OCc3ccccn3)CC3CCC2C3)cc1 (centres undefined) | 6.87 | 7.62 | – | –
c1ccc(COc2ccc(OCc3ccc4ccccc4n3)cc2C2(c3ccccc3)CC3CCC2C3)cc1 (centres undefined) | 8.07 | 6.66 | < 5.52 | –
O=C(Nc1cccnc1)Oc1ccc(OCc2nc3ccccc3s2)cc1C1(c2ccccc2)CC2CCC1C2 (centres undefined) | 8.60 | – | – | pIC50 ([2]; pmn): 8.74; pIC50 (Blood): 7.07
O=C(Nc1cccnc1)Oc1ccc(OCc2nc3ccccc3s2)cc1C1(c2ccccc2)CC2CCC1C2 (racemic) | 8.55 | – | – | bioavailability [4]: 19%; pIC50 ([2]; pmn): 8.70; inhibition in vivo at 2.5 µg/kg/min (Canis familiaris): 89%; Cmax [5]: 1100 nM; pIC50 (Blood): 7.48
O=C(Nc1cccnc1)Oc1ccc(OCc2nc3ccccc3s2)cc1C1(c2ccccc2)CC2CCC1C2 (single isomer, unassigned; (-)) | 8.62 | 8.52 | – | pIC50 (Blood): 7.43
CC(C)(C)Sc1c(CC(C)(C)C(=O)O)n(Cc2ccc(Cl)cc2)c2ccc(OCc3ccc4ccccc4n3)cc12 [QUIFLAPON] | – | 8.51 | 6.29 | –
